From publication PMC7890489, “Study on pharmacological properties and cell absorption metabolism of novel daidzein napsylates” (Royal Society Open Science, 2021)
Values after ≈ are worked out from the molar mass of the structure shown. Values joined by “and” are separate entries in the source; they are usually repeats but may differ in a detail not shown here. Equal values may be shown once. Read-outs that look alike come from different tables or passages of the source.

Experiments:
[1] = water with a pH of 7.8; cited from earlier work
[2] = cited from earlier work
[3] = design: key: —: Cannot be detected; settings: DAI ref 14; cited from earlier work
[4] = design: method as in ref 9 = [9]; 9 Chou F 2005 Pharmacokinetics of daidzein and its precursors . Shenyang, People's Republic of China : Shenyang Pharmaceutical University .; settings: rats, intragastric administration of DAI solution; cited from earlier work
[5] = at pH 7.4, 410 K, DAI ref 16, cited from earlier work
[6] = Solubility in water, methanol, cyclohexane and ethyl acetate by HPLC; assay type: physicochemical
Protocol: (§1) Mobile phase: acetonitrile-methanol (1 : 1); flow rate: 1.0 ml min^−1; injection volume: 20 µl; wavelength: 230 nm or 254 nm; column temperature: 25°C.
Five millilitres of water, methanol, cyclohexane and ethyl acetate was added to test tubes, and then samples (DD4 or DD5) were added. These solutions were shaken at constant temperature (37 ± 0.1)°C for 48 h. The supernatant was taken to determine its solubility with HPLC [14]. Solutions of tested sample beyond the linear concentration range were diluted with methanol for determination.

[7] = Apparent lipid-water (n-octanol/water) partition coefficient by HPLC; assay type: physicochemical; design: key: —: Cannot be detected; settings: for lgP: 37 °C, HPLC of aqueous phase; for apparent lipid-hydro partition coefficient found: HPLC
Protocol: as §1
DD4 (5.1 mg) was dissolved in 50 ml of water-saturated n-octanol solution to prepare a solution with a concentration of 102 mg l^−1. Solution (2 ml) and water-saturated n-octanol solution (2 ml) were added to a plugged 10 ml tube. The prepared sample solution was placed in a shaker and shaken to equilibrium overnight in the dark at constant temperature (37 ± 0.1)°C. The lower aqueous phase was taken and analysed by HPLC after centrifugation at a speed of 3000 r min^−1 for 10 min. The drug concentration in the aqueous phase (ρw) was calculated via the standard curve according to the peak area. DD5 (4.5 mg) was dissolved in 50 ml of water-saturated n-octanol solution to prepare a solution with a concentration of 90 mg l^−1. Other methods were the same as those for DD4 [14].

[8] = system: human aortic vascular smooth muscle cells (HAVSMCs); test: Drug absorption in human aortic vascular smooth muscle cells (HPLC of cell supernatant); assay type: in vitro ADME; settings: for value (drug concentration in cell supernatant): dosing DD4 171, DD5 120 ug/mL; for maximum cell absorption rate relative to DAI: compared with DAI; for absorptivity (maximum absorption rate): maximum (at 1 h)
Protocol: (§2) HAVSMCs were obtained from resuscitation in cryopreservation tubes. HAVSMCs at passages 3–10 were seeded at a density of 10^5 in 6-well plates, 2 ml per well. The cells were cultured at 37°C in a 5% carbon dioxide incubator for 24 h to adhere to the cell wall; cells were cultured in serum-free DMEM for 24 h. The cells were synchronized, the supernatant was carefully aspirated and different concentrations of drug solution were added to the DMEM culture medium containing 10% serum. Equal amounts of DMEM culture medium without drugs were added to the blank group. Each group was set up in triplicate and further cultured. The cultures were terminated at 0.5, 1, 6, 12, 24 or 48 h. Cell culture supernatants were collected and stored at −80°C for further analysis.
Cell supernatants were thawed at room temperature and vortexed for 1 min. To 50 µl of the cell supernatant, 50 µl of methanol was added and the mixtures were mixed uniformly by eddy current. Ethyl acetate (1 ml) was added to the mixture and vortexed for 3 min. Ethyl acetate was separated by cooled centrifugation at 3000 r min^−1 and dried with nitrogen, and the residue was dissolved in 500 µl of methanol before injection for analysis.
Mobile phase: methanol-phosphoric acid solution (0.4%) (1 : 1); flow rate: 0.5 ml min^−1; injection volume: 10 µl; wavelength: 230 nm or 254 nm; column temperature 25°C.
Cell supernatants were thawed and vortexed for 1 min. Drug-added supernatant (50 µl) was treated by the same method as the pre-treatment of cell samples described in §4.2.
The absorption and utilization rates of DD4 and DD5 were calculated by the formula (6.1), with the reduction of drug concentration in the cell culture medium taken as the absorption amount of drug by cells. The initial drug concentration was c0, and the concentration in the cell supernatant at other time points is denoted as c. […] With increasing time, the cell absorption rate of the drug was maintained at about 60%. The main reason for the differences in absorption of DD4 and DD5 might be the length of the substituent group (methyl, ethyl) on the 7-position:6.1 absorption rate=c0−c/c0×100%.

[9] = system: human aortic vascular smooth muscle cells (HAVSMCs); test: Cell metabolism in HAVSMCs by HPLC-MS; assay type: in vitro ADME; settings: for metabolite identified (chemical name): HAVSMC lysate, 24 h incubation, HPLC-MS negative ion mode; for metabolites found in cell lysate: HAVSMCs incubated 24 h, HPLC-MS, also found in supernatant; for redox products in HAVSMCs: preliminary analysis of metabolic components
Protocol: as §2
Mobile phase: methanol-formic acid (1 : 1); flow rate: 0.5 ml min^−1; injection volume: 10 µl; wavelength: 254 nm; column temperature: 25°C.
A triple quadrupole tandem precision mass spectrometer (Agilent 6430) with an […] source and a negative ion mode was used for precise determination. The full mass spectrum data were obtained in the range of m/z 50–1000. The optimal mass spectrum parameters were as follows: the capillary voltage was 4.0 kV; the injection cone voltage was 35 V; the desolvation gas flow (N2) rate was 900 l h^−1; the injection cone gas flow (N2) rate was 50 l h^−1; the desolvation temperature was 350°C; the ion source temperature was 150°C; the collision gas in collision induced dissociation (CID) mode was helium with high purity; the inlet pressure was set at 40 psi; the CID collision energy of the standard was 5–35 eV and the cracking voltage was 135 V.
The cell supernatant was thawed and vortexed for 0.5 min. Cell supernatant (50 µl) and […] (50 µl) were added to a 2 ml centrifuge tube and vortexed for 3 min. Ammonium dihydrogen phosphate (100 µl, 0.4%) and 1 ml of ethyl acetate were added, and the sample was vortexed for 3 min. The mixture was centrifuged at 3000 r min^−1 for 10 min. The supernatant (95 µl) was aspirated and dried by N2 flow. […] (500 µl) was added and the sample was vortexed for 0.5 min. After filtration over a 0.45 µm organic membrane, HPLC-MS analysis was carried out.
Cells from the −80°C stock were thawed at room temperature, and 1 ml of thawed cell lysate was added into each well of a 6-well plate. From each group, 0.5 ml of cell lysate was taken; 50 µl of […], 100 µl of ammonium dihydrogen phosphate (0.4%) and 1 ml of ethyl acetate were added and samples were vortexed for 3 min. Lysate (95 µl) was aspirated and dried by N2 flow. […] (500 µl) was added and samples were vortexed for 0.5 min. After filtration over a 0.45 µm organic membrane, HPLC-MS analysis was carried out.

[10] = system: vascular smooth muscle cells; test: Cytotoxicity by MTT assay; assay type: cell-based; settings: 300 ug/mL
Source text: […] 2) Please list the full name of “HAVSMCs”at the first time it appears.
We have listed the full name of “HAVSMCs” as its first appearance in the abstract of […]
[…] 3) Please number the carbon atoms of the compounds.
[…] 4) Line 19-36: The abstract can reflect all aspects of the work, but it is a bit long and too detailed. The authors should rephrase the abstract for a more concise […]
We have rewritten the section of abstract and tried to make it as concise as possible.
[…] 5) As far as I'm aware, daidzein as a biologically active natural product has been used for curing angiocardiopathy. But whether the synthesized daidzeinnapsylates have significant toxic side effects remain unknown. So, in vitro cytotoxicity […]
A549, HeLa cells) need be performed.
The cytotoxicity of DD4 and DD5 was determined by MTT assay in our lab before […]
the two compounds was less than 10% at the concentration of 300 ug/mL. It is considered that the compound is not toxic to vascular smooth muscle cells at this concentration. Therefore, the dosing concentrations of DD4 and DD5 were 171 and 120 ug/mL, respectively, to investigate the absorption and metabolism of drugs by […]
6)Please attach the 1H-NMR specturm of DD4 and DD5 in supporting information;

[11] = Solubility in water, methanol, cyclohexane and ethyl acetate by HPLC; assay type: physicochemical; settings: organic solvent or mixture, thermodynamic from solid, head: hexane (text: cyclohexane), 37 °C, shaken 48 h
[12] = design: method as in ref 23 = [23]; 23 Zhang ZT , Liu QG , Liu XH , Yang BL , Duan YF , Gao ZW , Yu KB 2002 Synthesis, crystal structure and biological activity of monomethylated daidzein sulfonates . Acta Chim. Sinica 60 , 1846 – 1853; settings: compared with DAI; cited from earlier work
[13] = organic solvent or mixture, thermodynamic from solid, methanol, 37 °C, shaken 48 h, HPLC, read-out: solubility methanol
[14] = thermodynamic from solid, water, 37 °C, shaken 48 h, HPLC, read-out: solubility water
[15] = water, Table 5, read-out: solubility in water

solubility at 48 h [6, 13] [µg/mL] | solubility at 48 h [6, 14] [µg/mL] | solubility in water ([6]; water, 37 °C) | solubility at 48 h [6, 15] [µg/mL] | lgP [7] | apparent lipid-hydro partition coefficient found [7] | time of peak (maximum) absorption [8] [h] | value (drug concentration in cell supernatant) ([8]; 0.5 h) [µg/mL] | value (drug concentration in cell supernatant) ([8]; 1 h) | value (drug concentration in cell supernatant) ([8]; 6 h) [µg/mL] | value (drug concentration in cell supernatant) ([8]; 12 h) [µg/mL] | value (drug concentration in cell supernatant) ([8]; 24 h) [µg/mL] | value (drug concentration in cell supernatant) ([8]; 48 h) [µg/mL] | maximum cell absorption rate relative to DAI [8] | absorptivity (maximum absorption rate) [8] [%] | metabolites found in cell lysate [9] | redox products in HAVSMCs [9] | melting point [°C] | solubility at 48 h [11] [µg/mL] | Compound | cell inhibition rate [10] | also measured
 |  |  |  |  |  |  |  |  |  |  |  |  |  |  |  |  |  |  | O=C(O)COc1ccc(-c2coc3cc(OCCO)ccc3c2=O)cc1 [4-oxoacetic acid-7-hydroxyethoxy-daidzein] |  | solubility in water [1]: 54.28 µg/mL (≈ 152 µM)
 |  |  |  |  |  |  |  |  |  |  |  |  |  |  |  |  |  |  | O=c1c(-c2ccc(O)cc2)coc2cc(O)ccc12 [DAI, 4′, 7-dihydroxyisoflavone] |  | solubility in ethyl acetate ([2]; Table 5, DAI ref 16): 0.13 ± 0.11 µg/mL (≈ 0.511 µM); solubility in cyclohexane ([2]; cyclohexane, DAI ref 14): could not be determined; solubility in water ([2]; water, DAI ref 14): too poor to be detected; lgP [3]: —^b; absolute bioavailability calculated on the basis of free DAI [4]: 12.8%; dissociation constant (percentage of drug prototypes) calculated value [5]: 10.41%; molecular polar surface area/two-dimensional calculated value [5]: 66.76 Å^2; molecular surface area/three-dimensional calculated value [5]: 315.07 Å^2; polarizability calculated value [5]: 26.21; refractivity calculated value [5]: 69.70; H-bond accepter site ([5]; first figure of site/count): 5; H-bond accepter count ([5]; second figure of site/count): 4
824 ± 19.3 (≈ 1800 µM) | < 0.059 | too poor to be detected | < 0.059 | —^b | —^b | 1 | 96.97 ± 15.57 | 20.62 µg/mL and 20.62 ± 0.71 µg/mL | 110.70 ± 4.98 | 82.48 ± 3.00 | 71.01 ± 34.97 | 111.28 ± 1.72 | 4.3 times and 4.3–4.5 times | 87.97 | Four metabolites were found | no redox products | 144 to 156 | 509 ± 49 (≈ 1110 µM) | COc1ccc2c(=O)c(-c3ccc(OS(=O)(=O)c4ccc5ccccc5c4)cc3)coc2c1 [DD4] | less than 10% | solubility at 48 h ([6]; ethyl acetate, 37 °C, shaken 48 h, HPLC, read-out: solubility ethanoate (ethyl acetate)): 36300 µg/mL (≈ 79200 µM); metabolite identified (chemical name) [9]: daidzein-4'-naphthalene sulphonate
2470 ± 72.4 (≈ 5230 µM) | < 0.059 | too poor to be detected | < 0.059 | —^b | —^b | 1 | 88.31 ± 4.25 | 11.59 ± 0.08 µg/mL | 44.60 ± 3.91 | 47.13 ± 15.99 | 50.34 ± 1.31 | 29.29 ± 2.50 | 4.5 times and 4.3–4.5 times | 90.34 | Six metabolites were found | no redox products | 151 to 153 | 69.7 ± 20.8 (≈ 148 µM) | CCOc1ccc2c(=O)c(-c3ccc(OS(=O)(=O)c4ccc5ccccc5c4)cc3)coc2c1 [DD5] | less than 10% | metabolite identified (chemical name) ([9]; metabolite DAI): daidzein; metabolite identified (chemical name) ([9]; metabolite M2): daidzein-4'-naphthalene sulphonate; metabolite identified (chemical name) ([9]; metabolite M4 or/and M4a): daidzein-4'-glucoside or daidzein-7-glucoside; metabolite identified (chemical name) ([9]; metabolite M5): 7-ethyldaidzein; metabolite identified (chemical name) ([9]; metabolite M6): daidzein-7-ethyl-4'-glucoside; metabolite identified (chemical name) ([9]; metabolite M7): daidzein-7-ethyl-4'-sulphonic acid
 |  |  |  |  |  |  |  |  |  |  |  |  |  |  |  |  |  |  | sodium daidzein sulphonate |  | anti-hypoxic-ischaemic effect [12]: obviously better than that of DAI
